TGI data for 22 molecules are collected here from PubChem BioAssay (NCI).

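Grown in 96-well plates, cells were treated for 48 hours with each compound at five concentrations. Insufficient inhibition: endpoint recorded as highest concentration tested. TGI: concentration producing complete growth inhibition.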 Where a SMILES comes first, the peptide text is derived from it. [ ]: non-standard residue; d: D form. The star is where a group is joined. ξ: configuration not given here. ξF = NC(Cc1ccccc1)C(=O)O; Cbz = O=C(OCc1ccccc1)*

One assay relates to A549 NSCLC. The assay is described as follows: NCI tumour cell line growth inhibition, 48 h.
Molecule `CC(SC(=S)N1CCOCC1)C(=O)Nc1nnc(-c2ccc(Cl)cc2)o1` (stereo unspecified) gave a TGI of more than 100 µM.

The molecule `CC(=O)c1ccc(Nc2c3c(nc4ccccc24)CCCC3)cc1` came in with a TGI of more than 95.5 µM.

In turn, `CCN1CCC(O)(c2ccc([N+](=O)[O-])cc2)C(C(=O)c2ccc([N+](=O)[O-])cc2)C1` (stereo unspecified) came in with a TGI of more than 100 µM.

Consider `CCOC(=O)CNC(=O)C(Cc1ccccc1)NC(=O)OCc1ccccc1` (stereo unspecified) (Cbz-[ξF]-Gly-OEt), for which the TGI is more than 100 µM.

Consider `S=C1Cc2c(-c3ccccc3)cc(-c3cccc(Cl)c3)nc2-c2ccccc2N1`, for which the TGI is 22.5 µM.

`N#Cc1sc2nc3ccccc3n2c1N`: the TGI was more than 100 µM.

`O=C(CCc1cc(O)cc(O)c1)NCCc1cc(O)cc(OCc2ccccc2)c1` returned a TGI of more than 100 µM.

The molecule `N#Cc1c(NC(=O)C(F)(F)F)sc2c3c(=O)c4ccccc4c(=O)c=3oc3ccccc3c12` had a TGI of more than 77.6 µM.

Consider `Cc1c(C)c2c(c(N)c1C#N)C(=O)N(Cc1ccc(S(N)(=O)=O)cc1)C2=O`, for which the TGI is more than 100 µM.

In turn, `CN(NC1=NCCO1)c1ccc2ccccc2c1` came in with a TGI of more than 100 µM.

On to `COC(=O)/C=C/c1ccc(OP(=O)(O)O)c(OC)c1`, for which the TGI is more than 100 µM.

In turn, `O=C(NCCN(CCNC(=O)c1cccc(O)c1O)CCNC(=O)c1cccc(O)c1O)c1cccc(O)c1O` yielded a TGI of more than 100 µM.

`COc1cc2nc(Cl)nc(NS(=O)(=O)c3cc4ccccc4s3)c2cc1OC` yielded a TGI of more than 100 µM.

The molecule `COC(=O)/C=C(\C(=O)OC)c1cc(C)c2cc(C(C)C)ccc(C)c1-2` showed a TGI of more than 100 µM.

Molecule `C[C@@H](CC(=O)OCc1ccccc1)OC1OC(COC(=O)C(C)(C)C)C(OC(=O)C(C)(C)C)C(OC(=O)C(C)(C)C)C1OC(=O)C(C)(C)C` (stereo partly specified) registered a TGI of more than 100 µM.

In turn, `CC(C)(C)OC(=O)N(CCCCNC(=O)C(F)(F)F)CCCNC(=O)C(F)(F)F` gave a TGI of more than 100 µM.

`C=C1CC[C@@H](CCC2CCC3(OC2)O[C@]2(O)CC[C@@]3(C)OC2(C)C)C(C)(C)[C@H]1C/C=C1\CCOC1=O` (stereo partly specified) gave a TGI of more than 100 µM.

With `Cc1nc2c(sc3nc4c(cc32)CCC4)c(=O)o1`, the TGI is more than 100 µM.

On to `Cc1ccc(OCC2OC(n3cnc4c(Cl)nc(Nc5cc(Cl)cc(Cl)c5)nc43)CC2Oc2ccc(C)cc2)cc1` (stereo unspecified), for which the TGI was more than 100 µM.

With `C=CCON(C(=O)OC(C)(C)C)C(C)(C)C`, the TGI is more than 100 µM.

`COC(=O)c1c(C)cccc1/C=C1\Cc2ccc(C)c(C)c2C1=O` came in with a TGI of more than 100 µM.

`COc1ccccc1C1c2cc3c(cc2OC2(OC)COC(=O)C12)OCO3` (stereo unspecified) gave a TGI of more than 100 µM.

The next assay deals with HCT-116 colon. The assay is described as follows: NCI tumour cell line growth inhibition, 48 h.
Take `CC(SC(=S)N1CCOCC1)C(=O)Nc1nnc(-c2ccc(Cl)cc2)o1` (stereo unspecified): the TGI came to 67.5 µM.

`CC(=O)c1ccc(Nc2c3c(nc4ccccc24)CCCC3)cc1`: the TGI was more than 72 µM.

The molecule `CCN1CCC(O)(c2ccc([N+](=O)[O-])cc2)C(C(=O)c2ccc([N+](=O)[O-])cc2)C1` (stereo unspecified) returned a TGI of 32.6 µM.

The molecule `CCOC(=O)CNC(=O)C(Cc1ccccc1)NC(=O)OCc1ccccc1` (stereo unspecified) (Cbz-[ξF]-Gly-OEt) had a TGI of more than 100 µM.

Molecule `S=C1Cc2c(-c3ccccc3)cc(-c3cccc(Cl)c3)nc2-c2ccccc2N1` came in with a TGI of 6.53 µM.

Turning to `N#Cc1sc2nc3ccccc3n2c1N`, the TGI is more than 100 µM.

Consider `O=C(CCc1cc(O)cc(O)c1)NCCc1cc(O)cc(OCc2ccccc2)c1`, for which the TGI was more than 100 µM.

`N#Cc1c(NC(=O)C(F)(F)F)sc2c3c(=O)c4ccccc4c(=O)c=3oc3ccccc3c12` yielded a TGI of 29.1 µM.

For `Cc1c(C)c2c(c(N)c1C#N)C(=O)N(Cc1ccc(S(N)(=O)=O)cc1)C2=O`, the TGI was more than 92.5 µM.

In the case of `CN(NC1=NCCO1)c1ccc2ccccc2c1`, the TGI is more than 100 µM.

In turn, `COC(=O)/C=C/c1ccc(OP(=O)(O)O)c(OC)c1` came in with a TGI of more than 100 µM.

`O=C(NCCN(CCNC(=O)c1cccc(O)c1O)CCNC(=O)c1cccc(O)c1O)c1cccc(O)c1O` gave a TGI of more than 100 µM.

The molecule `COc1cc2nc(Cl)nc(NS(=O)(=O)c3cc4ccccc4s3)c2cc1OC` registered a TGI of more than 100 µM.

`COC(=O)/C=C(\C(=O)OC)c1cc(C)c2cc(C(C)C)ccc(C)c1-2` showed a TGI of more than 100 µM.

`C[C@@H](CC(=O)OCc1ccccc1)OC1OC(COC(=O)C(C)(C)C)C(OC(=O)C(C)(C)C)C(OC(=O)C(C)(C)C)C1OC(=O)C(C)(C)C` (stereo partly specified): the TGI is more than 100 µM.

`CC(C)(C)OC(=O)N(CCCCNC(=O)C(F)(F)F)CCCNC(=O)C(F)(F)F` registered a TGI of more than 100 µM.

The molecule `C=C1CC[C@@H](CCC2CCC3(OC2)O[C@]2(O)CC[C@@]3(C)OC2(C)C)C(C)(C)[C@H]1C/C=C1\CCOC1=O` (stereo partly specified) came in with a TGI of 22.5 µM.

Consider `Cc1nc2c(sc3nc4c(cc32)CCC4)c(=O)o1`, for which the TGI was more than 100 µM.

Turning to `Cc1ccc(OCC2OC(n3cnc4c(Cl)nc(Nc5cc(Cl)cc(Cl)c5)nc43)CC2Oc2ccc(C)cc2)cc1` (stereo unspecified), the TGI is more than 100 µM.

Turning to `C=CCON(C(=O)OC(C)(C)C)C(C)(C)C`, the TGI was more than 100 µM.

`COC(=O)c1c(C)cccc1/C=C1\Cc2ccc(C)c(C)c2C1=O` registered a TGI of more than 100 µM.

In turn, `COc1ccccc1C1c2cc3c(cc2OC2(OC)COC(=O)C12)OCO3` (stereo unspecified) returned a TGI of more than 80.9 µM.

The subject of a further assay is HS 578T breast. The assay is described as follows: NCI tumour cell line growth inhibition, 48 h.
In the case of `CC(SC(=S)N1CCOCC1)C(=O)Nc1nnc(-c2ccc(Cl)cc2)o1` (stereo unspecified), the TGI is more than 100 µM.

As to `CC(=O)c1ccc(Nc2c3c(nc4ccccc24)CCCC3)cc1`, the TGI is more than 88 µM.

In turn, `CCN1CCC(O)(c2ccc([N+](=O)[O-])cc2)C(C(=O)c2ccc([N+](=O)[O-])cc2)C1` (stereo unspecified) returned a TGI of 61.7 µM.

`CCOC(=O)CNC(=O)C(Cc1ccccc1)NC(=O)OCc1ccccc1` (stereo unspecified) (Cbz-[ξF]-Gly-OEt) returned a TGI of more than 100 µM.

For `S=C1Cc2c(-c3ccccc3)cc(-c3cccc(Cl)c3)nc2-c2ccccc2N1`, the TGI is 6.12 µM.

`N#Cc1sc2nc3ccccc3n2c1N` registered a TGI of more than 100 µM.

Turning to `O=C(CCc1cc(O)cc(O)c1)NCCc1cc(O)cc(OCc2ccccc2)c1`, the TGI was more than 100 µM.

As for `N#Cc1c(NC(=O)C(F)(F)F)sc2c3c(=O)c4ccccc4c(=O)c=3oc3ccccc3c12`, the TGI came to 14.6 µM.

`Cc1c(C)c2c(c(N)c1C#N)C(=O)N(Cc1ccc(S(N)(=O)=O)cc1)C2=O`: the TGI is more than 100 µM.

As for `CN(NC1=NCCO1)c1ccc2ccccc2c1`, the TGI is more than 100 µM.

With `COC(=O)/C=C/c1ccc(OP(=O)(O)O)c(OC)c1`, the TGI was more than 100 µM.

In turn, `O=C(NCCN(CCNC(=O)c1cccc(O)c1O)CCNC(=O)c1cccc(O)c1O)c1cccc(O)c1O` came in with a TGI of more than 100 µM.

Molecule `COc1cc2nc(Cl)nc(NS(=O)(=O)c3cc4ccccc4s3)c2cc1OC` had a TGI of more than 100 µM.

As for `COC(=O)/C=C(\C(=O)OC)c1cc(C)c2cc(C(C)C)ccc(C)c1-2`, the TGI was more than 100 µM.

`C[C@@H](CC(=O)OCc1ccccc1)OC1OC(COC(=O)C(C)(C)C)C(OC(=O)C(C)(C)C)C(OC(=O)C(C)(C)C)C1OC(=O)C(C)(C)C` (stereo partly specified) registered a TGI of more than 100 µM.

For the molecule `CC(C)(C)OC(=O)N(CCCCNC(=O)C(F)(F)F)CCCNC(=O)C(F)(F)F`, the TGI is more than 100 µM.

Turning to `C=C1CC[C@@H](CCC2CCC3(OC2)O[C@]2(O)CC[C@@]3(C)OC2(C)C)C(C)(C)[C@H]1C/C=C1\CCOC1=O` (stereo partly specified), the TGI was more than 80.7 µM.

`Cc1nc2c(sc3nc4c(cc32)CCC4)c(=O)o1`: the TGI was more than 100 µM.

As for `Cc1ccc(OCC2OC(n3cnc4c(Cl)nc(Nc5cc(Cl)cc(Cl)c5)nc43)CC2Oc2ccc(C)cc2)cc1` (stereo unspecified), the TGI is more than 100 µM.

With `C=CCON(C(=O)OC(C)(C)C)C(C)(C)C`, the TGI was more than 100 µM.

In the case of `COC(=O)c1c(C)cccc1/C=C1\Cc2ccc(C)c(C)c2C1=O`, the TGI was more than 100 µM.

With `COc1ccccc1C1c2cc3c(cc2OC2(OC)COC(=O)C12)OCO3` (stereo unspecified), the TGI worked out at 34.8 µM.
